Values quoted from earlier work in patent publication US6849589B2, “Cleaning composition” (3M Innovative Properties Company, priority 2001, dated 2005).

Settings: in water, at about 20° C.

water solubility | Compound
about 0.06 weight percent | CC(C)CCCCCO [isooctyl alcohol]
about 0.05 weight percent | CC(C)CC(=O)CC(C)C [di-isobutyl ketone]
about 0.1 weight percent | CCCCCCCCO [Example 1-octanol, 1-octanol]
about 0.124 weight percent | CCCCCCCCN1CCCC1=O [N-octyl pyrrolidone]
